From patent EP1619246A1, “RNA dependent RNA polymerases from coronavirus and their use in molecular biology and drug screening” (Université de la Méditerranée, Aix-Marseille II, priority 2004, dated 2006) come the findings set out here.

The structures appear in SMILES notation.

In the test the target is SARS CoV nsp8 RNA dependent RNA polymerase, N-terminally His-tagged (SARS-CoV replicase residues 3920-4117), SEQ ID NO. 1 (Severe acute respiratory syndrome coronavirus, UniProt P0C6X7). The test is described as follows: biochemical. The test is classed as biochemical.

Turning to `Nc1nc2c(ncn2[C@@H]2O[C@H](COP(=O)(O)OP(=O)(O)OP(=O)(O)O)C[C@H]2O)c(=O)[nH]1` [3'-deoxy GTP, 3'-deoxy-GTP], the half-inhibitory concentration (IC50) is approximately 80 nM and the “Nsp8 activity inhibition in presence of 50 µM 3'-deoxy GTP” value is recorded as “can be inhibited”. Take `CO[C@H]1/C=C/O[C@@]2(C)Oc3c(C)c(O)c4c(O)c(c(/C=N/N5CCN(C)CC5)c(O)c4c3C2=O)NC(=O)/C(C)=C\C=C\[C@H](C)[C@H](O)[C@@H](C)[C@@H](O)[C@@H](C)[C@H](OC(C)=O)[C@@H]1C` [Rifampicine]: the “nsp8 polymerase activity in presence of Rifampicine (inhibitor of the bacterial polymerase)” value was “activity detected”.

As usually defined, the IC50 is the point on the concentration scale where inhibition reaches its midpoint.
